Results on two molecules are retold here after publication PMC11219871, “Epigenetic-based differentiation therapy for Acute Myeloid Leukemia” (Nature Communications, 2024).

The test system of one assay is MV4-11. Put plainly: q-RT-PCR of MYC, CDKN2A, CDKN1A, GATA2, TAL1, CEBPA, SPI1. The assay is classed as cell-based, human. The conditions noted are these: for q-PCR of CEBPA, log10 (2-ΔΔCt) / q-PCR of GATA2, log10 (2-ΔΔCt) / q-PCR of MYC, log10 (2-ΔΔCt) / q-PCR of SPI1, log10 (2-ΔΔCt) / q-PCR of TAL1, log10 (2-ΔΔCt): MV4-11, daily treatment for 48 h, replicates 1-3; for CDKN1A log10 (2-ΔΔCt) / CDKN2A log10 (2-ΔΔCt) / CEBPA log10 (2-ΔΔCt) / MYC log10 (2-ΔΔCt) / SPI1 log10 (2-ΔΔCt) / TAL1 log10 (2-ΔΔCt): MV4-11, q-PCR.

A further assay deals with T1, HDAC6 (Homo sapiens, UniProt Q9UBN7).
T1 sequence (Q9UBN7 1-1215): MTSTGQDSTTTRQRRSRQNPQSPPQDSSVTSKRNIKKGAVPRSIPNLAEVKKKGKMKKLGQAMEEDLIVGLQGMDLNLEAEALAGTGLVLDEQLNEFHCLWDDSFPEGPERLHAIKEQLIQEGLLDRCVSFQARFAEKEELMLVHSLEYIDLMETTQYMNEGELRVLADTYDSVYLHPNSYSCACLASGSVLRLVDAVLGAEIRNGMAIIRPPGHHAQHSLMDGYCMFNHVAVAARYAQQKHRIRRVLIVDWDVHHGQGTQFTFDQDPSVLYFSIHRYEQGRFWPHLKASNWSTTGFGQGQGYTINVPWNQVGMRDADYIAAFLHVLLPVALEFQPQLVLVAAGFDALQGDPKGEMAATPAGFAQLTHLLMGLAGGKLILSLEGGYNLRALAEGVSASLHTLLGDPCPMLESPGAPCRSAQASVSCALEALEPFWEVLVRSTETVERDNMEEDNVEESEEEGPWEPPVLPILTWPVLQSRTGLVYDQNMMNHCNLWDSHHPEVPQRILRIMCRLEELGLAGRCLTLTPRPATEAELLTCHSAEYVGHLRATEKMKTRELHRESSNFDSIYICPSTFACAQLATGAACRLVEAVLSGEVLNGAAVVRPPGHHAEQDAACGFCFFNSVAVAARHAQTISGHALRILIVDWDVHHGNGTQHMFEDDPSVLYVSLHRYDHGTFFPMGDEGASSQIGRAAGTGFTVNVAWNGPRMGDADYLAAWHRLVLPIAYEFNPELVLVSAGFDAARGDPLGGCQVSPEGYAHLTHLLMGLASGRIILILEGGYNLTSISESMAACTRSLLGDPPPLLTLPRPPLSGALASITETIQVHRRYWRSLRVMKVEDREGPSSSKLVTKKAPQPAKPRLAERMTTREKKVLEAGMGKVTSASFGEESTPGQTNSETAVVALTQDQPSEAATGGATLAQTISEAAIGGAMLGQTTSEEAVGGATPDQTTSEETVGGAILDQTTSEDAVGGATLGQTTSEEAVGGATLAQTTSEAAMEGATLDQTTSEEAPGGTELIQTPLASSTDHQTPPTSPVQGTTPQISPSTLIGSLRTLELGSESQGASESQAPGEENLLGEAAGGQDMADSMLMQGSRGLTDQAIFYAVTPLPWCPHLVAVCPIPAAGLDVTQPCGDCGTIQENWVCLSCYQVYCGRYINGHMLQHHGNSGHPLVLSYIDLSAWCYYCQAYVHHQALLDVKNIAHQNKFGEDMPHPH
In words: HDAC enzymatic assay, fluorescence-labeled substrate. The note with it: for inhibition at 10 µM: source data of Fig. 1B; for IC50: read-out: IC50. The assay is classed as biochemical.

Molecules are shown by their SMILES. Where “and” joins values, the source holds several entries; their conditions need not be identical. Equal entries are not always repeated.

In the case of `COc1cc2nc(-c3cc(C)oc3C)cc(NCC3CCN(c4ncc(C(=O)NO)cn4)CC3)c2cc1OC` [CM-1758, 2-[4-[[[2-(2,5-dimethyl-3-furyl)-6,7-dimethoxy-4-quinolyl]amino]methyl] -1-piperidyl]pyrimidine-5-carbohydroxamic acid], in the assay on MV4-11, the “q-PCR of CEBPA, log10 (2-ΔΔCt)” value is 1.278 and 1.212 and 1.279; the “q-PCR of GATA2, log10 (2-ΔΔCt)” value was 2.088 and 2.042 and 2.015; the “q-PCR of MYC, log10 (2-ΔΔCt)” value is -0.6051 and -0.8193 and -0.727; the “q-PCR of SPI1, log10 (2-ΔΔCt)” value is 0.513 and 0.595 and 0.5328. Besides, in the assay on MV4-11, the “q-PCR of TAL1, log10 (2-ΔΔCt)” value was 0.8637 and 0.6983 and 1.049; the “CDKN1A log10 (2-ΔΔCt)” value is 0.6259 and 0.6326 and 0.6646; the “CDKN2A log10 (2-ΔΔCt)” value is 0.8926 and 0.6026 and 0.7418; the “CEBPA log10 (2-ΔΔCt)” value was 1.982 and 1.782 and 1.913. Further, in the assay with MV4-11, the “MYC log10 (2-ΔΔCt)” value was -0.7926 and -0.6522 and -0.726; the “SPI1 log10 (2-ΔΔCt)” value was 0.2626 and 0.2252 and 0.159; the “TAL1 log10 (2-ΔΔCt)” value was 0.5124 and 0.5 and 0.5901. In addition, at HDAC6, 10 µM produced 90% inhibition and the IC50 (commonly the concentration that inhibits the measured activity by half) stood at 257 nM.

Regarding `COc1cc2nc(-c3ccc(C)o3)cc(NCC3CCN(c4ncc(C(=O)NO)cn4)CC3)c2cc1OC` [CM-444, 2-[4-[[[6,7-dimethoxy-2-(5-methyl-2-furyl)-4-quinolyl]amino]methyl]-1-piperidyl]pyrimidine-5-carbohydroxamic acid], in the assay on MV4-11, the “q-PCR of CEBPA, log10 (2-ΔΔCt)” value is 1.345 and 1.361 and 1.2654; the “q-PCR of GATA2, log10 (2-ΔΔCt)” value is 2.051 and 2.02 and 2.0001; the “q-PCR of MYC, log10 (2-ΔΔCt)” value is -0.5124 and -0.645 and -0.6461; the “q-PCR of SPI1, log10 (2-ΔΔCt)” value is 0.5839 and 0.521 and 0.5293. In the assay with MV4-11, the “q-PCR of TAL1, log10 (2-ΔΔCt)” value is 0.7218 and 0.3689 and 0.9897; the “CDKN1A log10 (2-ΔΔCt)” value is 0.9858 and 0.7237 and 0.8689; the “CDKN2A log10 (2-ΔΔCt)” value is 1.137 and 1.036 and 1.001; the “CEBPA log10 (2-ΔΔCt)” value was 1.693 and 1.502 and 1.597. Moreover, in the assay with MV4-11, the “MYC log10 (2-ΔΔCt)” value is -0.5932 and -0.4926 and -0.5131; the “SPI1 log10 (2-ΔΔCt)” value is 0.3258; the “TAL1 log10 (2-ΔΔCt)” value is 0.527 and 0.4921 and 0.4657. Moreover, on HDAC6, the inhibition – broadly, the percentage by which the read-out fell short of the control – at 10 µM is 90% and the IC50 came to 531 nM.
